Laboratory results taken from ChEMBL document CHEMBL2074069, “Drug- and estrogen-induced cholestasis through inhibition of the hepatocellular bile salt export pump (Bsep) of rat liver” (Gastroenterology, 2000).

T1: Bile salt export pump (Rattus norvegicus, UniProt O70127)
T1 sequence (O70127 whole entry): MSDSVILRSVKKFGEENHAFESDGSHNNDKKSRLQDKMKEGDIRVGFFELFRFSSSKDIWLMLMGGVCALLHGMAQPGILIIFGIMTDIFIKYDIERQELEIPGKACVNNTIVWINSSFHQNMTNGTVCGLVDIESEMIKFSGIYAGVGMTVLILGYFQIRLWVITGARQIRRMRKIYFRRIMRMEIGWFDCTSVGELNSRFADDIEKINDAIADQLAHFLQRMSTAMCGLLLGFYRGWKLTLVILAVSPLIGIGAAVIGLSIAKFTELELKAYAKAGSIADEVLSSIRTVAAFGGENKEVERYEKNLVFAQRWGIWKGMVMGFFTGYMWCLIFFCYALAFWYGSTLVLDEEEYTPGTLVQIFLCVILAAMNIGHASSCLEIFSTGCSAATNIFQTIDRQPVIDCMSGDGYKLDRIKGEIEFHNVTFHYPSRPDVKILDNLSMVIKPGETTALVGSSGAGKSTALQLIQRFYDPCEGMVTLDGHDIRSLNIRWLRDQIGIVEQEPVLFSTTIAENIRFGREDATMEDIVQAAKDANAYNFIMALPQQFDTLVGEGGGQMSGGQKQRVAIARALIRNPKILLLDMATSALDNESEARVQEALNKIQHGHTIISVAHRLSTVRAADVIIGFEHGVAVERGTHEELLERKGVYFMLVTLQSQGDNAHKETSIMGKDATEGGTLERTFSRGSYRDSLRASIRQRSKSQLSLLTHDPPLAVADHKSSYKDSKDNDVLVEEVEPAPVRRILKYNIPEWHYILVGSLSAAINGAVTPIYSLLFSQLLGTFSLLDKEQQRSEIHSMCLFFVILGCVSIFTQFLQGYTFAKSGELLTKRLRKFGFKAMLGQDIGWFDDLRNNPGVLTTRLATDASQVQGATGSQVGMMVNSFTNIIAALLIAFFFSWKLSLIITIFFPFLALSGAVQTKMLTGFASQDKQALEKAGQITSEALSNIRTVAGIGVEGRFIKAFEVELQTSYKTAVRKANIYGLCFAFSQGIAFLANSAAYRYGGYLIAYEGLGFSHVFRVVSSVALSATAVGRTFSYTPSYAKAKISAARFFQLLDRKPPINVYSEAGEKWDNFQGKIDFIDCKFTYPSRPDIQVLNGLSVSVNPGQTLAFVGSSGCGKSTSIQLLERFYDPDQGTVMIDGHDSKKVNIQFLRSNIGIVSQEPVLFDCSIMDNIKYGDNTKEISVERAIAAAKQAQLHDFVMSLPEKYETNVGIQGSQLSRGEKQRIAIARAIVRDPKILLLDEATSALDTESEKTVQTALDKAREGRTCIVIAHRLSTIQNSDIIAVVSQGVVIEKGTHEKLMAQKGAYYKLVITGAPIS

B1: Bile salt export pump (Rattus norvegicus) (protein)
chain: T1 sequence (O70127 whole entry)

Assays:
[1] = biological target: ATP-binding cassette sub-family C member 2 (Rattus norvegicus, UniProt Q63120); assay: TP_TRANSPORTER: uptake in membrane vesicles from Mrp2-expressing Sf9 cells; type: functional, cell membranes, Membrane vesicle
Bile salt export pump [2] = biological target: T1, Bile salt export pump; assay: TP_TRANSPORTER: inhibition of Taurocholate uptake in membrane vesicles from Bsep-expressing Sf9 cells; type: functional
Bile salt export pump [3] = biological target: T1, Bile salt export pump; assay: (§1) TP_TRANSPORTER: uptake in membrane vesicles from Bsep-expressing Sf9 cells; type: functional
[4] = substrate: C[C@H](CCC(=O)NCCS(=O)(=O)O)[C@H]1CC[C@H]2[C@@H]3[C@@H](O)C[C@@H]4C[C@H](O)CC[C@]4(C)[C@H]3CC[C@]12C; assay: as §1; type: functional
[5] = substrate: C[C@H](CCC(=O)NCCS(=O)(=O)O)[C@H]1CC[C@H]2[C@@H]3[C@H](O)C[C@@H]4C[C@H](O)CC[C@]4(C)[C@H]3CC[C@]12C; assay: as §1; type: functional

Chain of ATP-binding cassette sub-family C member 2 (Q63120 whole entry): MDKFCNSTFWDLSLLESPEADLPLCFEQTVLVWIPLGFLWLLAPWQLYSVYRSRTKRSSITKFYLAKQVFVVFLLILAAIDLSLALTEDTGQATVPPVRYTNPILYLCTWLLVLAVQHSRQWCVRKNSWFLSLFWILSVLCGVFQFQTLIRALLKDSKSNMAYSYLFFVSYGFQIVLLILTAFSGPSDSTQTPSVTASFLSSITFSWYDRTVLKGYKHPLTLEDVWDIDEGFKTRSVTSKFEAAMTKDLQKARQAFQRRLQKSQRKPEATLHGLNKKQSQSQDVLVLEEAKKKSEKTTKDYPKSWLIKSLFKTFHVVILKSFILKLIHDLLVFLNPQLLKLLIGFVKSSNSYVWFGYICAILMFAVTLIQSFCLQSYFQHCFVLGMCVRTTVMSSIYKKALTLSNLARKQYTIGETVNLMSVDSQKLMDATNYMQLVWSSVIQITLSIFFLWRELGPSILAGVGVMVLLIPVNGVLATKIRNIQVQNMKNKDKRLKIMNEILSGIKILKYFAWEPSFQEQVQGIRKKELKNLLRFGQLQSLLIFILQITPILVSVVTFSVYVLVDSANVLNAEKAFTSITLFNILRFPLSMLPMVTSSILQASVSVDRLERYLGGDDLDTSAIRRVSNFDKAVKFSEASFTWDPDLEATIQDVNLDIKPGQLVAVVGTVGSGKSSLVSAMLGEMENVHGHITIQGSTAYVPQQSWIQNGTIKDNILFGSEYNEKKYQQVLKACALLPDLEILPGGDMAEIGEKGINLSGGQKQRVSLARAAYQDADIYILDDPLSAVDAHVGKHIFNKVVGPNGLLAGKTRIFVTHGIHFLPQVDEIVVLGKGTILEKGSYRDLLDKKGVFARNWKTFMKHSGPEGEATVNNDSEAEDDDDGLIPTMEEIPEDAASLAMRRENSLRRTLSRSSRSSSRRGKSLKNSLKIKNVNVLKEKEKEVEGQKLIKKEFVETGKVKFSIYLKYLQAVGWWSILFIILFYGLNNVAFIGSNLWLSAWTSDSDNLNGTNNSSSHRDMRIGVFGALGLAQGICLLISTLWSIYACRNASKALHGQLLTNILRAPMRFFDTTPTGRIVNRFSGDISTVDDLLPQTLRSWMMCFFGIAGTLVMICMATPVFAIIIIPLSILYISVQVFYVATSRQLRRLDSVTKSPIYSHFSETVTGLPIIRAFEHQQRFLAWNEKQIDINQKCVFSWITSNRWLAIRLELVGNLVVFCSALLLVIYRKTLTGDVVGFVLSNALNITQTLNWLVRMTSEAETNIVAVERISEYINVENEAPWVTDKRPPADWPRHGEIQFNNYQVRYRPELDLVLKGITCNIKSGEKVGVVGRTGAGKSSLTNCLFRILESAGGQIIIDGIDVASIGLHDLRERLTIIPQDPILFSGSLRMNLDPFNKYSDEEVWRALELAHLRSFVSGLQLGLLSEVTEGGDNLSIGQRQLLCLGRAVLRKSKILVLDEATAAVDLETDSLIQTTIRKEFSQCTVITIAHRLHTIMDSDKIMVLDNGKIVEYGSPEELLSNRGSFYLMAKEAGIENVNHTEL

Row | Molecule | Ki (Bile salt export pump [2]) [µM] | Activity (Bile salt export pump [3]) | other results
1 | C[C@H](CCC(=O)NCCS(=O)(=O)O)C1CC[C@H]2[C@@H]3CC[C@@H]4C[C@H](OS(=O)(=O)O)CC[C@]4(C)[C@H]3CC[C@]12C (some centres undefined) |  |  | Activity [1]: substrate [+]
2 | COc1ccc(Cl)cc1C(=O)NCCc1ccc(S(=O)(=O)NC(=O)NC2CCCCC2)cc1 [GLYBURIDE] | 6.1 |  | 
3 | C[C@H](CCC(=O)NCC(=O)O)[C@H]1CC[C@H]2[C@@H]3[C@H](O)C[C@@H]4C[C@H](O)CC[C@]4(C)[C@H]3CC[C@]12C [GLYCOCHENODEOXYCHOLATE] |  | substrate [+] | 
4 | C[C@H](CCC(=O)NCC(=O)O)[C@H]1CC[C@H]2[C@@H]3[C@H](O)C[C@@H]4C[C@H](O)CC[C@]4(C)[C@H]3C[C@H](O)[C@]12C [GLYCOCHOLIC ACID] |  | substrate [+] | 
5 | CO[C@H]1/C=C/O[C@@]2(C)Oc3c(C)c(O)c4c(O)c(c(/C=N/N5CCN(C)CC5)c(O)c4c3C2=O)NC(=O)/C(C)=C\C=C\[C@H](C)[C@H](O)[C@@H](C)[C@@H](O)[C@@H](C)[C@H](OC(C)=O)[C@@H]1C [RIFAMPIN] | 11.9 |  | 
6 | CO[C@H]1/C=C/O[C@@]2(C)Oc3c(C)c(O)c4c(O)c(cc(O)c4c3C2=O)NC(=O)/C(C)=C\C=C\[C@H](C)[C@H](O)[C@@H](C)[C@@H](O)[C@@H](C)[C@H](OC(C)=O)[C@@H]1C [RIFAMYCIN] | 3.8 |  | 
7 | C[C@H](CCC(=O)NCCS(=O)(=O)O)[C@H]1CC[C@H]2[C@@H]3CC[C@@H]4C[C@H](O)CC[C@]4(C)[C@H]3C[C@H](O)[C@]12C [TAURODEOXYCHOLIC ACID] |  | substrate [+] | 
8 | B1 |  |  | Km [4]: 4.1 µM; Km [5]: 2.2 µM
